# Patent US20220339143A1, “TAK-925 FOR USE IN TREATING NARCOLEPSY” (Takeda Pharmaceutical Company Limited, priority 2019, published 2022)
# “Also recorded” adds a separate entry of the source. Read-outs that look alike come from different tables or passages of the source.
# Assay: Single dose PK in healthy subjects (Cohorts 1, 2, S1 and S2), plasma
# Assay type: in vivo, human
# Method: This study investigates (i) the safety and tolerability of Compound A (methyl (2R,3S)-3-((methylsulfonyl)amino)-2-(((cis-4-phenylcyclohexyl)oxy)methyl)piperidine-1-carboxylate) when a single dose given as a 9 hour continuous IV infusion is administered to healthy adults, healthy elderly subjects and patients with narcolepsy type 1 (NT1); (ii) the pharmacokinetics of Compound A when a single dose given as a 9 hour continuous IV infusion is administered to healthy adults, healthy elderly subjects and patients with narcolepsy type 1; and (iii) the pharmacodynamics (PD) effects of Compound A, primarily by evaluation of the sleep latency on MWT when a single dose given as a 9 hour continuous IV infusion is administered to patients with narcolepsy type 1.
# Pharmacokinetics: Concentrations of Compound A in plasma, and CSF, and pharmacokinetics parameters.
# On average, the time to reach the plateau appeared to be approximately 3 to 4 hours after the start of infusion. […] After switching off the IV infusion, Compound A plasma concentrations declined rapidly and in a biphasic manner with a mean terminal disposition phase t1/2z ranging approximately from 3.4 to 5.1 hours across all doses. […] Table 5 provides a summary of plasma concentrations of Compound A after a single IV infusion in healthy subjects. Table 6 provides a summary of pharmacokinetic parameters of Compound A after a single IV infusion in healthy subjects.
# [1] = 56 mg, 2 hr After End of Infusion
# [2] = 112 mg single IV infusion, healthy subjects
# [3] = 112 mg, 0.17 hr After End of Infusion
# [4] = 134.4 mg single IV infusion, healthy subjects
# [5] = 134.4 mg, 0.17 hr After End of Infusion
# [6] = 180 mg single IV infusion, healthy subjects
# [7] = 240 mg single IV infusion, healthy subjects
# [8] = human, plasma, intravenous, 7 mg, read-out: Plasma concentration, Mean
# [9] = human, plasma, intravenous, 7 mg, read-out: Plasma concentration, Median
# [10] = human, plasma, intravenous, 7 mg, read-out: Plasma concentration, Minimum
# [11] = human, plasma, intravenous, 7 mg, read-out: Plasma concentration, Q1
structure (smiles),measurement,setting,value
"COC(=O)N1CCC[C@H](NS(C)(=O)=O)[C@@H]1CO[C@H]1CC[C@@H](c2ccccc2)CC1 [Compound A, methyl (2R,3S)-3-((methylsulfonyl)amino)-2-(((cis-4-phenylcyclohexyl)oxy)methyl)piperidine-1-carboxylate]","Plasma concentration, Mean",[1],21.70 ng/mL
same,"Plasma concentration, Minimum",[1],15.4 ng/mL
same,"Plasma concentration, Q1",[1],15.60 ng/mL
same,AUCinf D Mean,[2],18.87 ng·h/mL/mg
same,AUCinf D Median,[2],19.25 ng·h/mL/mg
same,Cmax D Mean,[2],2.130 ng/mL/mg
same,Cmax D Median,[2],2.230 ng/mL/mg
same,t½z Mean,[2],3.788 h
same,t½z Median,[2],3.370 h
same,"Plasma concentration, Maximum",[3],138 ng/mL
same,"Plasma concentration, Mean",[3],126.2 ng/mL
same,"Plasma concentration, Median",[3],133.0 ng/mL
same,"Plasma concentration, Minimum",[3],106 ng/mL
same,"Plasma concentration, Q1",[3],110.0 ng/mL
same,"Plasma concentration, Q3",[3],137.0 ng/mL
same,"Plasma concentration, Maximum","112 mg, Predose",0.00 ng/mL
same,"Plasma concentration, Median","112 mg, Predose",0.000 ng/mL
same,"Plasma concentration, Minimum","112 mg, Predose",0.00 ng/mL
same,"Plasma concentration, Q1","112 mg, Predose",0.000 ng/mL
same,"Plasma concentration, Q3","112 mg, Predose",0.000 ng/mL
same,AUCinf D Mean,[4],20.23 ng·h/mL/mg
same,AUCinf D Median,[4],19.95 ng·h/mL/mg
same,Cmax D Mean,[4],2.293 ng/mL/mg
same,Cmax D Median,[4],2.340 ng/mL/mg
same,t½z Mean,[4],3.943 h
same,t½z Median,[4],3.760 h
same,"Plasma concentration, Maximum",[5],255 ng/mL
same,"Plasma concentration, Mean",[5],181.7 ng/mL
same,"Plasma concentration, Median",[5],167.5 ng/mL
same,"Plasma concentration, Minimum",[5],145 ng/mL
same,"Plasma concentration, Q1",[5],148.0 ng/mL
same,"Plasma concentration, Q3",[5],207.0 ng/mL
same,"Plasma concentration, Maximum","134.4 mg, Predose",0.00 ng/mL
same,"Plasma concentration, Mean","134.4 mg, Predose",0.000 ng/mL
same,"Plasma concentration, Median","134.4 mg, Predose",0.000 ng/mL
same,"Plasma concentration, Minimum","134.4 mg, Predose",0.00 ng/mL
same,"Plasma concentration, Q1","134.4 mg, Predose",0.000 ng/mL
same,"Plasma concentration, Q3","134.4 mg, Predose",0.000 ng/mL
same,AUCinf D Mean,[6],16.73 ng·h/mL/mg
same,AUCinf D Median,[6],16.90 ng·h/mL/mg
same,Cmax D Mean,[6],1.918 ng/mL/mg
same,Cmax D Median,[6],1.990 ng/mL/mg
same,t½z Mean,[6],3.363 h
same,t½z Median,[6],3.225 h
same,AUCinf D Mean,[7],19.28 ng·h/mL/mg
same,AUCinf D Median,[7],18.45 ng·h/mL/mg
same,Cmax D Mean,[7],2.133 ng/mL/mg
same,Cmax D Median,[7],2.010 ng/mL/mg
same,Vss Median,[7],99.25 L
same,t½z Mean,[7],4.033 h
same,t½z Median,[7],4.230 h
same,dose proportionality of mean plasma systemic exposure,"doses of 7 to 240 mg, healthy adults",increased approximately dose proportionally; also recorded: exhibits linear pharmacokinetics
same,concentration at 0.33 h after end of infusion,[8],7.34 ng/mL
same,concentration at 0.33 h after end of infusion,[9],7.16 ng/mL
same,concentration at 0.33 h after end of infusion,[10],6.28 ng/mL
same,concentration at 0.33 h after end of infusion,[11],7.12 ng/mL
same,concentration at 0.33 h after end of infusion,"human, plasma, intravenous, 7 mg, read-out: Plasma concentration, Q3",7.26 ng/mL
same,concentration at 0.5 h after end of infusion,[8],6.73 ng/mL
same,concentration at 0.5 h after end of infusion,[9],6.46 ng/mL
same,concentration at 0.5 h after end of infusion,[10],6.1 ng/mL
same,concentration at 0.5 h after end of infusion,[11],6.26 ng/mL
same,concentration at 0.5 h,"human, plasma, intravenous, 7 mg, 0.5 hr, read-out: Plasma concentration, Maximum",10.5 ng/mL
same,concentration at 0.5 h,"human, plasma, intravenous, 7 mg, 0.5 hr, read-out: Plasma concentration, Mean",9.15 ng/mL
same,concentration at 0.5 h,"human, plasma, intravenous, 7 mg, 0.5 hr, read-out: Plasma concentration, Median",9.54 ng/mL
same,concentration at 0.5 h,"human, plasma, intravenous, 7 mg, 0.5 hr, read-out: Plasma concentration, Minimum",6.99 ng/mL
same,concentration at 0.5 hr,"human, plasma, intravenous, 7 mg, 0.5 hr, read-out: Plasma concentration, Q1",7.83 ng/mL
same,concentration at 0.5 h,"human, plasma, intravenous, 7 mg, 0.5 hr, read-out: Plasma concentration, Q3",10.5 ng/mL
same,concentration at 0.75 h after end of infusion,[8],5.55 ng/mL
same,concentration at 0.75 h after end of infusion,[9],5.38 ng/mL
same,concentration at 0.75 h after end of infusion,[10],5.27 ng/mL
same,concentration at 0.75 h after end of infusion,[11],5.35 ng/mL
same,concentration at 1 h after end of infusion,[8],4.91 ng/mL
same,concentration at 1 h after end of infusion,[9],4.83 ng/mL
same,concentration at 1 h after end of infusion,[10],4.34 ng/mL
same,concentration at 1 h after end of infusion,[11],4.82 ng/mL
same,concentration at 1 h,"human, plasma, intravenous, 7 mg, 1 hr, read-out: Plasma concentration, Maximum",15.1 ng/mL
same,concentration at 1 h,"human, plasma, intravenous, 7 mg, 1 hr, read-out: Plasma concentration, Mean",11.7 ng/mL
same,concentration at 1 h,"human, plasma, intravenous, 7 mg, 1 hr, read-out: Plasma concentration, Median",11.9 ng/mL
same,concentration at 1 h,"human, plasma, intravenous, 7 mg, 1 hr, read-out: Plasma concentration, Minimum",8.68 ng/mL
same,concentration at 1 hr,"human, plasma, intravenous, 7 mg, 1 hr, read-out: Plasma concentration, Q1",9.45 ng/mL
same,concentration at 1 h,"human, plasma, intravenous, 7 mg, 1 hr, read-out: Plasma concentration, Q3",13.2 ng/mL
same,concentration at 1.5 h after end of infusion,[8],4.25 ng/mL
same,concentration at 1.5 h after end of infusion,[9],4.5 ng/mL
same,concentration at 1.5 h after end of infusion,[10],3.27 ng/mL
same,concentration at 1.5 h after end of infusion,[11],4.15 ng/mL
same,concentration at 1.5 h,"human, plasma, intravenous, 7 mg, 1.5 hr, read-out: Plasma concentration, Maximum",17.6 ng/mL
same,concentration at 1.5 h,"human, plasma, intravenous, 7 mg, 1.5 hr, read-out: Plasma concentration, Mean",13.1 ng/mL
same,concentration at 1.5 h,"human, plasma, intravenous, 7 mg, 1.5 hr, read-out: Plasma concentration, Median",13 ng/mL
same,concentration at 1.5 h,"human, plasma, intravenous, 7 mg, 1.5 hr, read-out: Plasma concentration, Minimum",8.96 ng/mL
same,concentration at 1.5 hr,"human, plasma, intravenous, 7 mg, 1.5 hr, read-out: Plasma concentration, Q1",12 ng/mL
same,concentration at 1.5 h,"human, plasma, intravenous, 7 mg, 1.5 hr, read-out: Plasma concentration, Q3",14 ng/mL
same,concentration at 2 h,"human, plasma, intravenous, 7 mg, 2 hr, read-out: Plasma concentration, Maximum",18.5 ng/mL
same,concentration at 2 h,"human, plasma, intravenous, 7 mg, 2 hr, read-out: Plasma concentration, Mean",14.8 ng/mL
same,concentration at 2 h,"human, plasma, intravenous, 7 mg, 2 hr, read-out: Plasma concentration, Median",14.9 ng/mL
same,concentration at 2 h,"human, plasma, intravenous, 7 mg, 2 hr, read-out: Plasma concentration, Minimum",10.9 ng/mL
same,concentration at 2 hr,"human, plasma, intravenous, 7 mg, 2 hr, read-out: Plasma concentration, Q1",12.8 ng/mL
same,concentration at 2 h,"human, plasma, intravenous, 7 mg, 2 hr, read-out: Plasma concentration, Q3",16.5 ng/mL
same,concentration at 3 h,"human, plasma, intravenous, 7 mg, read-out: Plasma concentration, Maximum",20.2 ng/mL
same,concentration at 3 h,[8],16.5 ng/mL
same,concentration at 3 h,[9],15.8 ng/mL
same,concentration at 3 h,[10],13.2 ng/mL
